According to patent US20250303004A1, “RADIOPHARMACEUTICAL COMPOSITIONS FOR LOW TOXICITY ACTINIUM IN TARGETED RADIONUCLIDE THERAPY” (Curium US LLC, priority 2021, published 2025):
Entries after “also recorded” stand apart in the source; their conditions may differ. Read-outs that look alike come from different tables or passages of the source.

What was measured:
patient [1] = conditions: Sathekge 2019a; 1 patient; 8 MBq per cycle; cited from earlier work
patients with mCRPC [2] = conditions: 26 patients, cited from earlier work; for Biochemical response PSA50 (PSA decline of >50%): all progressed after ^177Lu-PSMA
cerebral metastases = conditions: in vivo; cited from earlier work
patients with mCRPC [3] = conditions: cited from earlier work; for Biochemical response PSA50 (PSA decline of more than 50%): 40 patients (38 evaluated)
patient [4] = conditions: De Medeiros 2019; 1 patient; 6-8 MBq per cycle; cited from earlier work
patient [5] = conditions: cited from earlier work
patients with mCRPC [6] = conditions: cited from earlier work
[7] = tested on: salivary glands, kidneys, red marrow; assay: Dosimetry estimate for ^225Ac-PSMA-617 extrapolated from ^177Lu-PSMA-617 scans; assay type: in vivo, human; conditions: FIG. 15
Description: The clinical dosimetry basis and dose finding study was performed by using the isotopes ^225Ac and ^177Lu by Kratochwil et al. A dosimetry estimate was calculated on the basis of time-activity curves derived from serially obtained ^177Lu-PSMA-617 scans extrapolated to the physical half-life of ^225Ac, assuming instant decay of unstable daughter nuclides. Salvage therapies empirically conducted with 50 (n=4), 100 (n=4), 150 (n=2), and 200 kBq/kg (n=4) of 225Ac-PSMA-617 were evaluated retrospectively regarding toxicity and treatment response. Eight of 14 patients received further cycles in either 2- or 4-mo intervals with identical or de-escalated activities.
In FIG. 15, the absorbed radiation dose estimates for ^225Ac-PSMA-617 are shown together with I-131-“PSMA” and ^177Lu-PSMA-617 doses. We see that mean dose for salivary glands is approximately 70% higher with ^225Ac-PSMA-617 than with ^177Lu-PSMA-617, and red marrow dose 85% higher, respectively.

patients [8] = conditions: van der Doelen 2020; 13 patients; 6-8 MBq per cycle; cited from earlier work
kidneys = conditions: in vivo; cited from earlier work
patients with mCRPC [9] = conditions: cited from earlier work; remark: listed apart in the source
[10] = tested on: chemotherapy naive patients; conditions: cited from earlier work
mCRPC patients = conditions: cited from earlier work
patients [11] = conditions: out of 60; cited from earlier work
[12] = Feuerecker 2020, 4-8 MBq per cycle
[13] = Kratochwil 2018, 40 patients, 100 kBq/kg per cycle
[14] = 3 cycles of mean 8.4 MBq, PSA 39.7 ng/ml at first cycle
[15] = Yadav 2020, 28 patients, 100 kBq/kg per cycle
[16] = group with previous ^177Lu-PSMA
[17] = Kratochwil 2016, 2 patients, 100 kBq/kg per cycle
[18] = both patients, 100 kBq/kg every 8 weeks
[19] = Sathekge 2019b, 17 patients, 4-8 MBq per cycle
[20] = Kratochwil 2017, 14 patients, 50-200 kBq/kg per cycle

SMILES: O=C(O)CC[C@H](NC(=O)N[C@@H](CCCCNC(=O)[C@H](Cc1ccc2ccccc2c1)NC(=O)[C@H]1CC[C@H](CNC(=O)CN2CCN(CC(=O)O)CCN(CC(=O)O)CCN(CC(=O)O)CC2)CC1)C(=O)O)C(=O)O [^225Ac-PSMA-617, metal not drawn]
- Biochemical response PSA50 (patient [1]): 100%
- median overall survival (patients with mCRPC [2]; 95% CI 4.5-12.1 months): 7.7 months
- complete response (patients with mCRPC [2]): no complete response was seen
- patients refusing any further treatment due to severe xerostomia (patients with mCRPC [2]): 23%
- patients with any PSA reduction (patients with mCRPC [2]): 88%
- xerostomia (patients with mCRPC [2]): Mild irreversible xerostomia was seen in all patients
- patients with treatment discontinued to prevent further deterioration of marrow toxicity (patients with mCRPC [2]; pre-existing marrow toxicity): 8%
- Biochemical response PSA50 (PSA decline of >50%) (patients with mCRPC [2]; [12]): 65%
- Biochemical response PSA50 (PSA decline of >50%) (patients with mCRPC [2]; Feuerecker 2020, 4-8 MBq per cycle, listed as PSMA-617): 65%
- Major toxicity (patients with mCRPC [2]; [12]): xerostomia; also recorded: Hb↓, WBC↓, plt↓
- OS (patients with mCRPC [2]; [12]): 7.7 mo
- PFS (patients with mCRPC [2]; [12]): 3.5 mo
- blood-brain barrier crossing (cerebral metastases): crosses the blood-brain barrier
- effect on cerebral metastases (cerebral metastases): significant regression of cerebral metastases
- median duration of tumor control (patients with mCRPC [3]; 40 patients, 100 kBq/kg): 9 months
- median overall survival (patients with mCRPC [3]; 40 patients, 100 kBq/kg): more than 12 months
- progression free survival (median) (patients with mCRPC [3]; 40 patients, 100 kBq/kg): 7.0 months
- Biochemical response PSA50 (PSA decline of more than 50%) (patients with mCRPC [3]; Kratochwil 2018, 100 kBq/kg per cycle): 63%
- Biochemical response PSA50 (PSA decline of more than 50%) (patients with mCRPC [3]; Kratochwil 2018, 100 kBq/kg per cycle, listed as PSMA-617): 63%
- Major toxicity (patients with mCRPC [3]; [13]): xerostomia
- OS (patients with mCRPC [3]; [13]): na/>12 mo
- patients demonstrating any PSA response (patients with mCRPC [3]; of 38 patients surviving at least 8 weeks): 87%
- Biochemical response PSA50 (patient [4]): 100%
- Major toxicity (patient [4]): xerostomia; also recorded: xerophtalmia
- PSA level at second cycle (patient [5]; [14]): 7.7 ng/mL
- PSA level at third cycle (patient [5]; [14]): 0.32 ng/mL
- xerostomia (patient [5]; 3 cycles of mean 8.4 MBq): chronic xerostomia
- creatinine (patient [5]; January 2019, increased from 1.3 in October 2015): 3.3 mg/dL
- Biochemical response PSA50 (patients with mCRPC [6]; [15]): 39%
- Major toxicity (patients with mCRPC [6]; [15]): xerostomia; also recorded: fatigue
- OS (patients with mCRPC [6]; [15]): 17 mo
- PFS (patients with mCRPC [6]; [15]): 12 mo
- PSA decline of >50% (patients with mCRPC [6]; ^177Lu PSMA naïve group): 53.8%
- median survival (patients with mCRPC [6]; ^177Lu PSMA naïve group): 12 months
- overall survival (patients with mCRPC [6]; ^177Lu PSMA naïve group): 17 months
- progression rate (patients with mCRPC [6]; ^177Lu PSMA naïve group): 22.3%
- PSA decline of >50% (patients with mCRPC [6]; [16]): 26.6%
- median survival (patients with mCRPC [6]; [16]): 10 months
- overall survival (patients with mCRPC [6]; [16]): 16 months
- progression rate (patients with mCRPC [6]; [16]): 46%
- mean dose for salivary glands higher than with ^177Lu-PSMA-617 [7]: approximately 70%
- red marrow dose higher than with ^177Lu-PSMA-617 [7]: 85%
- Biochemical response PSA50 (patients [8]): 69%
- Major toxicity (patients [8]): xerostomia
- OS (patients [8]): na/8.5 mo
- kidney function (kidneys): deteriorated
- route of excretion (kidneys): predominantly renal excretion
- Salivary gland toxicity (xerostomia) (patients with mCRPC [9]; 2 patients): reported in both patients
- Biochemical response PSA50 (patients with mCRPC [9]; [17]): 100%
- Major toxicity (patients with mCRPC [9]; [17]): xerostomia
- PSA (patients with mCRPC [9]; [18]): declined below the measurable level
- response on ^68Ga-PSMA-11 PET/CT scan (patients with mCRPC [9]; [18]): complete response
- most frequently noted side-effect ([10]; 17 patients, no discontinuation due to severe symptoms): Grade 1-2 xerostomia
- Biochemical response PSA50 [10, 19]: 88%
- Major toxicity [10, 19]: xerostomia
- nephrotoxicity ([10]; a patient with only a single functional kidney, poor renal functioning from baseline): Grade 4 nephrotoxicity
- patients with PSA decline >90% ([10]; at end of therapy, 17 patients): 82%
- patients still alive ([10]; median follow up of 13 months post initiation of treatment): 82%
- surviving patients in remission with undetectable serum PSA levels ([10]; median follow up of 13 months): 50%
- surviving patients with stable disease ([10]; median follow up of 13 months): 50%
- Biochemical response PSA50 (mCRPC patients; [20]): 44%
- Major toxicity (mCRPC patients; [20]): xerostomia
- OS (mCRPC patients; [20]): na/8.5 mo
- duration of prostate-specific antigen decline (mCRPC patients; at 100 kBq/kg): less than 4 months
- dose-limiting toxicity (mCRPC patients; if treatment activity exceeded 100 kBq/kg per cycle): severe xerostomia
- patients with remarkable antitumor activity (objective radiologic response or tumor marker decline) (mCRPC patients; of 11 evaluable patients): 9 patients
- toxicity (mCRPC patients; treatment activities of 50 kBq/kg): without toxicity
- antitumor response (mCRPC patients; treatment activities of 50 kBq/kg, high-tumor-burden patients): insufficient antitumor response
- patients with poor response despite sufficient tumor uptake in PSMA PET/CT (patients [11]): 10 patients
